{
  "source": "patent US9499509B2",
  "about": "“Dihydrochalcone derivatives and their use as antibiotic agents” (UNIVERSITÉ DU QUÉBEC À CHICOUTIMI, priority 2012, dated 2016)",
  "key": {"[1]": {"tested_on": "methicillin-resistant Staphylococcus aureus (MRSA) strains", "assay": "Antibiotic assay (resazurin, Example 1), MRSA strains", "type": "cell-based", "conditions": "for IC50: read-out: IC50", "method_in_brief": "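Ten MRSA strains isolated from screening swabs (nares, throat, groin pus) of patients at Chicoutimi hospital were tested, with S. aureus wild-type strain ATCC25923 run alongside. Isolates were identified using the Slidex Staph-Kit and API Staph strips. Methicillin resistance was confirmed by PBP2a latex agglutination and by a Kirby-Bauer disk diffusion antibiogram on Muller-Hinton agar at 37° C.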"}, "[2]": {"tested_on": "S. aureus wild type strain (ATCC 25923)", "assay": "Antibiotic assay (resazurin, Example 1), S. aureus wild type", "type": "cell-based, Staphylococcus aureus", "protocol": "(§1) Bacteria Strain. […] The MRSA were obtained as further described below.\n(§2) Antibiotic agents. Cyprofloxacin and erythromycin were provided by Sigma-Aldrich. Gentamicin sulfate and vancomycin hydrochloride were provided by Calbiochem.\nMRSA. Ten (10) strains of MRSA obtained as described above were tested along with an S. aureus wild type (WT) strain (ATCC25923)."}, "S. aureus": {"tested_on": "S. aureus", "assay": "Antibiotic assay (resazurin, Example 1), S. aureus strains of Table 3", "type": "cell-based, Staphylococcus aureus", "conditions": "for IC50: read-out: IC50", "source_text": "as §1, §2"}, "Streptococcus pneumoniae": {"tested_on": "Streptococcus pneumoniae", "assay": "Antibiotic assay (resazurin, Example 1), Streptococcus pneumoniae", "type": "cell-based", "conditions": "for IC50: read-out: IC50", "protocol": "as §1, §2\n(§3) Five additional strains were tested: Streptococcus pneumoniae, Streptococcus agalactiae, Streptococcus pyogenes, Enterococcus faecalis and Corynebacterium jeikeium."}, "Enterococcus faecalis": {"tested_on": "Enterococcus faecalis", "assay": "Antibiotic assay (resazurin, Example 1), Enterococcus faecalis", "type": "cell-based", "conditions": "for IC50: read-out: IC50", "protocol": "as §1, §2, §3"}, "Corynebacterium jeikeium": {"tested_on": "Corynebacterium jeikeium", "assay": "Antibiotic assay (resazurin, Example 1), Corynebacterium jeikeium", "type": "cell-based", "conditions": "Coryne. jeikeium 14139", "protocol": "as §1, §2, §3"}, "Streptococcus pyogenes": {"tested_on": "Streptococcus pyogenes", "assay": "Antibiotic assay (resazurin, Example 1), Streptococcus pyogenes", "type": "cell-based", "conditions": "for IC50: read-out: IC50", "protocol": "as §1, §2, §3"}, "WS-1 cell lines": {"tested_on": "WS-1 cell lines", "assay": "Cytotoxicity assay on WS-1 (Example 1)", "conditions": "Table 5; WS-1, 48 h", "protocol": "Cytotoxicity assay. The cytotoxicity assay was performed in 96-well plates (BD Falcon). The WS-1 cell lines were provided by ATCC. The WS-1 was cultured in DMEM+10% fetal calf serum. The cells were plated in a volume of 100 μL at a density of 5000 cells per well and incubated at 37° C.+5% CO2 for 24 h to promote cell adhesion.\nThe plates were incubated at 37° C.+5% CO2 for 48 h. The cells were then washed with 100 μL of HBSS and 150 μL of a 2% resazurin were added to the wells.\nThe therapeutic index is the ratio between the toxicity on normal cells, in this case fibroblast, and the toxicity on bacteria."}, "S. epidermidis": {"tested_on": "S. epidermidis", "assay": "Antibiotic assay (resazurin, Example 1), S. epidermidis strains"}},
  "note": "Where two headings read alike, the source gives them in different places.",
  "data": [
    {"smiles": "COc1ccc(CCC(=O)c2c(O)cc(O)c(C/C=C/c3ccc(O)cc3)c2O)cc1", "note": "[Compound II]", "values": [
      {"measurement": "Minimum Inhibitory Concentration (MIC)", "setting": "[1]; MRSA 1", "value": "(5.34) μM"},
      {"measurement": "IC50", "setting": "[1]; MRSA 1", "value": "2500 ± 200", "unit": "nM"},
      {"measurement": "Minimum Inhibitory Concentration (MIC)", "setting": "[1]; MRSA 2", "value": "(5.57) μM"},
      {"measurement": "IC50", "setting": "[1]; MRSA 2", "value": "2600 ± 200", "unit": "nM"},
      {"measurement": "Minimum Inhibitory Concentration (MIC)", "setting": "[1]; MRSA 3", "value": "(5.29) μM"},
      {"measurement": "IC50", "setting": "[1]; MRSA 3", "value": "2600 ± 200", "unit": "nM"},
      {"measurement": "Minimum Inhibitory Concentration (MIC)", "setting": "[1]; MRSA 4", "value": "(4.61) μM"},
      {"measurement": "IC50", "setting": "[1]; MRSA 4", "value": "2400 ± 100", "unit": "nM"},
      {"measurement": "Minimum Inhibitory Concentration (MIC)", "setting": "[1]; MRSA 5", "value": "(4.86) μM"},
      {"measurement": "IC50", "setting": "[1]; MRSA 5", "value": "2300 ± 400", "unit": "nM"},
      {"measurement": "Minimum Inhibitory Concentration (MIC)", "setting": "[1]; MRSA 6", "value": "(5.22) μM"},
      {"measurement": "IC50", "setting": "[1]; MRSA 6", "value": "2300 ± 200", "unit": "nM"},
      {"measurement": "Minimum Inhibitory Concentration (MIC)", "setting": "[1]; MRSA 7", "value": "(4.34) μM"},
      {"measurement": "IC50", "setting": "[1]; MRSA 7", "value": "2500 ± 200", "unit": "nM"},
      {"measurement": "Minimum Inhibitory Concentration (MIC)", "setting": "[1]; MRSA 8", "value": "(4.84) μM"},
      {"measurement": "IC50", "setting": "[1]; MRSA 8", "value": "2300 ± 200", "unit": "nM"},
      {"measurement": "Minimum Inhibitory Concentration (MIC)", "setting": "[1]; MRSA 9", "value": "(5.26) μM"},
      {"measurement": "IC50", "setting": "[1]; MRSA 9", "value": "2500 ± 200", "unit": "nM"},
      {"measurement": "Minimum Inhibitory Concentration (MIC)", "setting": "[1]; MRSA 10", "value": "(5.07) μM"},
      {"measurement": "IC50", "setting": "[1]; MRSA 10", "value": "3200 ± 200", "unit": "nM"},
      {"measurement": "Minimum Inhibitory Concentration (MIC)", "setting": "[2]; S. aureus WT (ATCC 25923)", "value": "(6.47) μM"},
      {"measurement": "IC50", "setting": "[2]; S. aureus WT (ATCC 25923), read-out: IC50", "value": "2700 ± 700", "unit": "nM"},
      {"measurement": "IC50", "setting": "[2]; Table 5, same values as IC50 of Table 2, read-out: S. aureus WT ATCC 25923 (toxicity on bacteria)", "value": "2700 ± 700", "unit": "nM"},
      {"measurement": "Minimum Inhibitory Concentration (MIC)", "setting": "S. aureus; S. aureus 14094", "value": "(6.2) μM"},
      {"measurement": "IC50", "setting": "S. aureus; S. aureus 14094", "value": "3.5 ± 0.3", "unit": "µM"},
      {"measurement": "Minimum Inhibitory Concentration (MIC)", "setting": "S. aureus; S. aureus 14108", "value": "(6.81) μM"},
      {"measurement": "IC50", "setting": "S. aureus; S. aureus 14108", "value": "3.3 ± 0.2", "unit": "µM"},
      {"measurement": "Minimum Inhibitory Concentration (MIC)", "setting": "S. aureus; S. aureus 14118", "value": "(5.05) μM"},
      {"measurement": "Minimum Inhibitory Concentration (MIC)", "setting": "S. aureus; S. aureus 14154", "value": "(4.88) μM"},
      {"measurement": "IC50", "setting": "S. aureus; S. aureus 14154", "value": "2 ± 0.1", "unit": "µM"},
      {"measurement": "Minimum Inhibitory Concentration (MIC)", "setting": "Streptococcus pneumoniae; Strep. pneumoniae 14070", "value": "(122) μM"},
      {"measurement": "IC50", "setting": "Streptococcus pneumoniae; Strep. pneumoniae 14070", "value": "54 ± 4", "unit": "µM"},
      {"measurement": "Minimum Inhibitory Concentration (MIC)", "setting": "Streptococcus pneumoniae; Strep. pneumoniae 14112", "value": "(169) μM"},
      {"measurement": "IC50", "setting": "Streptococcus pneumoniae; Strep. pneumoniae 14112", "value": "74 ± 6", "unit": "µM"},
      {"measurement": "Minimum Inhibitory Concentration (MIC)", "setting": "Streptococcus pneumoniae; Strep. pneumoniae 14138", "value": "(>200) μM"},
      {"measurement": "IC50", "setting": "Streptococcus pneumoniae; Strep. pneumoniae 14138", "value": "> 200", "unit": "µM"},
      {"measurement": "Minimum Inhibitory Concentration (MIC)", "setting": "Streptococcus pneumoniae; Strep. pneumoniae 14144", "value": "(>200) μM"},
      {"measurement": "IC50", "setting": "Streptococcus pneumoniae; Strep. pneumoniae 14144", "value": "> 200", "unit": "µM"},
      {"measurement": "Minimum Inhibitory Concentration (MIC)", "setting": "Streptococcus pneumoniae; Strep. pneumoniae 14148", "value": "(200) μM"},
      {"measurement": "IC50", "setting": "Streptococcus pneumoniae; Strep. pneumoniae 14148", "value": "83 ± 7", "unit": "µM"},
      {"measurement": "activity against Streptococcus pneumoniae 14070 strain", "setting": "Streptococcus pneumoniae; in words", "value": "active"},
      {"measurement": "activity against Streptococcus pneumoniae strain 14144", "setting": "Streptococcus pneumoniae; in words", "value": "not active"},
      {"measurement": "Minimum Inhibitory Concentration (MIC)", "setting": "Enterococcus faecalis; Ent. Faecalis 14078", "value": "(>200) μM"},
      {"measurement": "IC50", "setting": "Enterococcus faecalis; Ent. Faecalis 14078", "value": "> 200", "unit": "µM"},
      {"measurement": "Minimum Inhibitory Concentration (MIC)", "setting": "Enterococcus faecalis; Ent. Faecalis 14115", "value": "(>200) μM"},
      {"measurement": "IC50", "setting": "Enterococcus faecalis; Ent. Faecalis 14115", "value": "> 200", "unit": "µM"},
      {"measurement": "activity against Enterococcus faecalis", "setting": "Enterococcus faecalis; in words", "value": "No activity"},
      {"measurement": "Minimum Inhibitory Concentration (MIC)", "setting": "Corynebacterium jeikeium", "value": "(112) μM"},
      {"measurement": "Minimum Inhibitory Concentration (MIC)", "setting": "Streptococcus pyogenes; Strep. pyogenes 14149", "value": "(>200) μM"},
      {"measurement": "IC50", "setting": "Streptococcus pyogenes; Strep. pyogenes 14149", "value": "> 200", "unit": "µM"},
      {"measurement": "Minimum Inhibitory Concentration (MIC)", "setting": "Streptococcus pyogenes; Strep. pyogenes 14152", "value": "(>200) μM"},
      {"measurement": "IC50", "setting": "Streptococcus pyogenes; Strep. pyogenes 14152", "value": "90 ± 7", "unit": "µM"},
      {"measurement": "activity against Streptococcus pyogenes strain 14152", "setting": "Streptococcus pyogenes; in words", "value": "active"},
      {"measurement": "WS-1 (toxicity on normal cells, fibroblast)", "setting": "WS-1 cell lines", "value": "27 ± 4"},
      {"measurement": "IC50", "setting": "S. epidermidis; S. epidermidis 14069", "value": "5 ± 0.3", "unit": "µM"},
      {"measurement": "Minimum Inhibitory Concentration (MIC)", "setting": "S. epidermidis; S. epidermidis 14069", "value": "(12.7) μM"},
      {"measurement": "IC50", "setting": "S. epidermidis; S. epidermidis 14085", "value": "4.4 ± 0.3", "unit": "µM"},
      {"measurement": "Minimum Inhibitory Concentration (MIC)", "setting": "S. epidermidis; S. epidermidis 14085", "value": "(14.3) μM"},
      {"measurement": "IC50", "setting": "S. epidermidis; S. epidermidis 14093", "value": "7 ± 0.3", "unit": "µM"},
      {"measurement": "Minimum Inhibitory Concentration (MIC)", "setting": "S. epidermidis; S. epidermidis 14093", "value": "(11.2) μM"},
      {"measurement": "IC50", "setting": "S. epidermidis; S. epidermidis 14134", "value": "3.8 ± 0.6", "unit": "µM"},
      {"measurement": "Minimum Inhibitory Concentration (MIC)", "setting": "S. epidermidis; S. epidermidis 14134", "value": "(13.5) μM"},
      {"measurement": "IC50", "setting": "S. epidermidis; S. epidermidis 14143", "value": "5.8 ± 0.2", "unit": "µM"},
      {"measurement": "Minimum Inhibitory Concentration (MIC)", "setting": "S. epidermidis; S. epidermidis 14143", "value": "(10.9) μM"},
      {"measurement": "activity on S. epidermidis compared with ciprofloxacin", "setting": "S. epidermidis; in words", "value": "more active than ciprofloxacin"}
    ]}
  ]
}
